Key:
Assay in all cases: relative viability (nuclei count vs DMSO), 5 days (fraction); higher = more cells survive
Erlotinib + Lapatinib = compound: C#Cc1cccc(Nc2ncnc3cc(OCCOC)c(OCCOC)cc23)c1 [Erlotinib] + CS(=O)(=O)CCNCc1ccc(-c2ccc3ncnc(Nc4ccc(OCc5cccc(F)c5)c(Cl)c4)c3c2)o1 [Lapatinib] (partner 2 µM)
In short: (§1)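 Medians of duplicate plates are given as relative viability. That measure is the nuclei count in treated wells divided by the count in vehicle wells. Counts were taken on 4× images of lung cancer cell lines in 1536-well plates, 5 days after pin-tool dosing the day after seeding with one drug alone or a fixed anchor-drug dose plus five library-drug doses (not always all listed) in √10 steps.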

AT9283 + Pictilisib = compound: O=C(Nc1c[nH]nc1-c1nc2ccc(CN3CCOCC3)cc2[nH]1)NC1CC1 [AT9283] + CS(=O)(=O)N1CCN(Cc2cc3nc(-c4cccc5[nH]ncc45)nc(N4CCOCC4)c3s2)CC1 [Pictilisib] (partner 1 µM)
In short: as §1

AT9283 + Trametinib = compound: O=C(Nc1c[nH]nc1-c1nc2ccc(CN3CCOCC3)cc2[nH]1)NC1CC1 [AT9283] + CC(=O)Nc1cccc(-n2c(=O)n(C3CC3)c(=O)c3c(Nc4ccc(I)cc4F)n(C)c(=O)c(C)c32)c1 [Trametinib] (partner 0.02 µM)
In short: as §1

Erlotinib + Decitabine = compound: C#Cc1cccc(Nc2ncnc3cc(OCCOC)c(OCCOC)cc23)c1 [Erlotinib] + Nc1ncn([C@H]2C[C@H](O)[C@@H](CO)O2)c(=O)n1 [Decitabine] (partner 2 µM)
In short: as §1

AT9283 + Crizotinib = compound: O=C(Nc1c[nH]nc1-c1nc2ccc(CN3CCOCC3)cc2[nH]1)NC1CC1 [AT9283] + C[C@@H](Oc1cc(-c2cnn(C3CCNCC3)c2)cnc1N)c1c(Cl)ccc(F)c1Cl [Crizotinib] (partner 1 µM)
In short: as §1

Cell Line	relative viability (Erlotinib + Lapatinib; first compound 0.02 µM)	relative viability (Erlotinib + Lapatinib; first compound 0.2 µM)	relative viability (Erlotinib + Lapatinib; first compound 0.6325 µM)	relative viability (AT9283 + Pictilisib; first compound 0.003 µM)	relative viability (AT9283 + Pictilisib; first compound 0.03 µM)	relative viability (AT9283 + Pictilisib; first compound 0.09487 µM)	relative viability (AT9283 + Pictilisib; first compound 0.3 µM)	relative viability (AT9283 + Trametinib; first compound 0.003 µM)	relative viability (AT9283 + Trametinib; first compound 0.03 µM)	relative viability (AT9283 + Trametinib; first compound 0.09487 µM)	relative viability (AT9283 + Trametinib; first compound 0.3 µM)	relative viability (Erlotinib + Decitabine; first compound 0.02 µM)	relative viability (Erlotinib + Decitabine; first compound 0.2 µM)	relative viability (Erlotinib + Decitabine; first compound 0.6325 µM)	relative viability (Erlotinib + Decitabine; first compound 2 µM)	relative viability (AT9283 + Crizotinib; first compound 0.003 µM)	relative viability (AT9283 + Crizotinib; first compound 0.03 µM)	relative viability (AT9283 + Crizotinib; first compound 0.09487 µM)	relative viability (AT9283 + Crizotinib; first compound 0.3 µM)	relative viability (Erlotinib + Lapatinib; first compound 2 µM)
NCI-H520	0.825	0.759	0.913	0.259	0.247	0.216	0.171	0.719	0.276	0.291	0.149	0.593	0.504	0.519	0.564	0.692	0.322	0.285	0.182	–
NCI-H3122	1.08	1.03	0.982	0.602	0.41	0.271	0.217	0.277	0.247	0.168	0.097	0.533	0.402	0.443	0.386	0.291	0.259	0.216	0.214	1.01
LXF-289	0.89	0.953	0.899	0.727	0.668	0.0746	0.0864	0.695	0.686	0.254	0.145	0.448	0.398	0.363	0.383	0.829	0.511	0.151	0.138	0.889
NCI-H2126	0.771	0.763	0.788	0.48	0.493	0.375	0.26	0.573	0.566	0.38	0.293	0.569	0.537	0.437	0.493	0.943	1.02	0.69	0.465	0.727
SK-MES-1	0.511	0.452	0.476	0.345	0.314	0.158	0.147	0.643	0.594	0.541	0.276	0.393	0.345	0.31	0.27	1.02	0.883	0.84	0.256	0.434
HOP-62	1.08	1.09	0.94	0.645	0.351	0.19	0.146	0.384	0.431	0.194	0.188	0.232	0.221	0.187	0.241	1.13	0.747	0.285	0.167	1.04
NCI-H596	–	1	0.998	0.391	0.415	0.412	0.373	0.76	0.868	0.566	0.635	1.21	0.926	0.999	0.985	0.897	0.974	0.966	0.707	1.01
NCI-H1944	0.79	0.65	1.05	0.327	0.307	0.221	0.224	0.408	0.307	0.196	0.206	0.43	0.382	0.37	0.372	0.9	0.648	0.257	0.294	0.816
NCI-H2023	0.737	0.651	0.965	0.216	0.106	0.0878	0.111	0.572	0.604	0.227	0.119	0.247	0.222	0.251	0.24	0.704	0.471	0.196	0.123	–
SK-LU-1	0.974	0.933	0.995	0.603	0.348	0.217	0.197	0.508	0.424	0.288	0.279	0.661	0.707	0.634	0.592	0.922	0.519	0.295	0.305	0.869
NCI-H661	0.493	0.41	–	0.296	0.382	0.334	0.292	0.571	0.441	0.423	0.323	0.566	–	0.551	0.384	0.986	0.571	0.409	0.452	0.473
NCI-H322M	0.551	0.604	0.555	0.498	0.413	0.294	0.298	0.486	0.49	0.407	0.405	0.718	0.582	0.55	0.545	0.888	0.611	0.446	0.337	0.541
LCLC-97TM1	1.36	–	0.929	0.171	0.141	0.0991	0.114	0.203	0.159	0.119	0.123	0.224	0.254	0.234	0.256	0.273	0.157	0.128	0.121	0.846
NCI-H2405	1.1	1.11	1.14	0.463	0.384	0.254	0.145	0.737	0.491	0.296	0.185	–	0.706	0.647	0.629	0.826	0.634	0.272	0.217	0.976
NCI-H647	1.24	1.11	1.09	0.43	0.159	0.0749	0.085	0.46	0.47	0.138	0.173	0.422	0.392	0.442	0.456	1.01	0.357	0.201	0.121	0.942
NCI-H650	0.754	1.08	1.14	0.853	0.816	0.274	0.186	0.976	0.906	0.394	0.179	0.34	0.313	0.303	0.307	0.6	0.368	0.222	0.22	0.744

Source: the supplement of paper PMC10307832
